Patent publication US20210161868A1, “ANTI-INFLAMMATORY THERAPY IN ARRHYTHMOGENIC CARDIOMYOPATHY (ACM)” (Beth Israel Deaconess Medical Center, Inc., priority 2018, published 2021)

System: Dsg2^mut/mut mice
Assay: Morphometry, echocardiography and electrocardiography in Dsg2^mut/mut mice
Type: in vivo
Excerpt: All animal studies were in full compliance with policies of Beth Israel Deaconess Medical Center, Johns Hopkins School of Medicine and St. George's University of London. They also conformed to the Guide for the Care and Use of Laboratory Animals from the National Institutes of Health (NIH publication no. 85-23, revised 1996). In vitro studies involved transfection of cultured neonatal rat ventricular myocytes with a mutant allele of the desmosomal protein plakoglobin (2157de12) as previously described.^15 In vivo studies were performed in mice with homozygous knock-in of a mutant form of Dsg2, the gene encoding the desmosomal cadherin desmoglein-2 (Dsg2^mut/mut mice) as previously described.^6 This mutation entails loss of exons 4 and 5 which causes a frameshift and premature termination of translation.
Three cohorts of mice at 8 weeks of age were anesthetized and implanted with subcutaneous osmotic mini-pumps (Alzet, Model 1004). These included: 1) Dsg2^mut/mut mice with pumps containing 50 μg/μL Bay11-7082 in a vehicle of 65% DMSO, 15% ethanol, and 20% saline; 2) Dsg2^mut/mut mice with pumps containing an equivalent volume of vehicle; and 3) wildtype mice with pumps containing vehicle. Mice in cohort 1 received 5 mg/kg/day of Bay11-7082 by continuous infusion; those in cohorts 2 and 3 received an equivalent volume of vehicle each day for 4 weeks. At 12 weeks of age, mice were re-anesthetized and new Alzet pumps were implanted for an additional 4 weeks of treatment.
At the end of the 8 week drug treatment protocol, cardiac function was assessed in all mice by transthoracic echocardiography and electrocardiography (ECG) as previously described. Echocardio-graphic measurements were made according to American Society of Echocardiography guidelines^48 in non-sedated mice using a Vevo 2100 Visualsonic imaging system. Parasternal long-axis views of the left ventricle (LV), at the level of the papillary muscles, were acquired at a sweep speed of 200 mm/second. Three to five measurements were acquired from each mouse and averaged to assess LV function as previously described. ECG measurements made in anesthetized mice in which wire electrodes had been sutured in place in the right and left arms to obtain standard lead I ECG recordings. Recordings were captured via PowerLab and analyzed via the LabChart Pro ECG Analysis Add-on Software (LabChart Pro 8, MLS360/8, AD Intruments). ECGs were recorded for 15 minutes and all ECG wave and amplitude parameters were analyzed as signal averaged ECGs (SAECGs). Following completion of functional studies, mice were euthanized and hearts were excised and processed for additional studies either by freezing fresh tissue (−80C) or fixing tissue in 10% buffered formalin and embedding in paraffin.

[1] = Dsg2^mut/mut + Bay11-7082, n=17, mean±SEM, 8 week treatment
[2] = Dsg2^mut/mut mice, continuous infusion over 8 weeks

Cc1ccc(S(=O)(=O)/C=C/C#N)cc1 [Bay 11-7082]
FS, fractional shortening [1]: 49.5 ± 1.9% | HW/BW, heart weight/body weight [1]: 4.7 ± 0.1 mg/g | IVSd, interventricular septum thickness at end-diastole [1]: 0.95 ± 0.02 mm | LVIDd, left ventricular internal diameter at end-diastole [1]: 2.96 ± 0.06 mm | LVIDs, left ventricular internal diameter at end-systole [1]: 1.50 ± 0.08 mm | LVM, left ventricular mass [1]: 92.9 ± 3.08 mg | P-Amp, P-wave amplitude [1]: 0.06 ± 0.003 mV | PR-I, P-R interval [1]: 39.0 ± 0.9 ms | Pd, P-wave duration [1]: 10.1 ± 0.5 ms | Q-Amp, Q-wave amplitude [1]: −0.06 ± 0.01 mV | QRSd, QRS wave duration [1]: 11.4 ± 0.4 ms | R-Amp, R-wave amplitude [1]: 0.66 ± 0.04 mV | RR-I, R-R interval [1]: 118 ± 2.5 ms | S-Amp, S-wave amplitude [1]: −0.09 ± 0.04 mV | abnormalities in the signal averaged ECG [2]: corrected | contractile function [2]: normalized | treated ACM mice that failed to respond to NFκB inhibition (related to technical failure of drug delivery by Alzet minipumps): 3 of 17
